The values below come from PubChem BioAssay (NCI).

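Test compounds were applied to cells in 96-well plates for 48 hours at 5 doses. TGI denotes the concentration required for complete inhibition of growth.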 Bounds are passed on as bounds.

What all share (experiment): NCI anticancer screen, dose series, 48 h
Assay [1] concerns UACC-257 melanoma.
The test system of assay [2] is 786-0 renal.
In assay [3] the test system is NCI-H460 lung.
Assay [4] deals with U251 CNS.
The subject of assay [5] is DU-145 prostate.
For assay [6], the system named is HCT-116 colon.
Assay [7] has as its system SW-620 colon.
In assay [8] the test system is SR leukemia.
The test system of assay [9] is CAKI-1 renal.
For assay [10], the system named is PC-3 prostate.
The subject of assay [11] is NCI-H226 lung.
Assay [12] deals with MALME-3M melanoma.

For the molecule `CC(C)c1ccc2c(c1)C=C1OC(=O)[C@]3(C)CCC[C@@]2(C)C13` (stereo not given in full), the TGI in [1], in assay [2], in assay [3], in [4], in [5] and in [6] was more than 100 µM throughout. The TGI in [7], in assay [8], in assay [9], in assay [10] and in assay [11] was more than 100 µM in each case.
`CC1(C)O[C@H]2[C@@H]3N=C(c4ccccc4)O[C@@H]3C=C[C@H]2O1`: the TGI in assay [1], in assay [2], in assay [4], in assay [5], in assay [6] and in [7] was more than 100 µM each time. Also, the TGI in assay [8], in assay [9], in assay [10] and in assay [11] was more than 100 µM throughout.
Turning to `CC(=O)O[C@H]1[C@@H](OC2CCCC2(c2ccccc2)c2ccccc2)O[N+]([O-])=C[C@@]12COCc1cc3c(cc12)OCO3` (stereo not given in full), the TGI in assay [1] is more than 100 µM; in assay [2] it was 22 µM; in assay [3], 31.5 µM; in [4], 22.6 µM; in [5], more than 100 µM; in [6], more than 47.5 µM. Also, the TGI in assay [7] was more than 100 µM; in [8] it was more than 23.6 µM; in assay [9] it was more than 100 µM; in assay [10], 19.3 µM; in assay [11] it was 15.8 µM.
Turning to `CC(C)C(Sc1nc(-c2ccccc2)c(-c2ccccc2)[nH]1)C(=O)N/N=C/c1ccc([N+](=O)[O-])cc1` (stereo not given), the TGI in assay [1] turned out to be 28.8 µM; in [2] it was 32.1 µM; in assay [3], 34.1 µM; in [4], 29.8 µM; in [6], 28 µM; in assay [7] it was 37.2 µM. The TGI worked out at 33.6 µM in assay [8], 30 µM in assay [12], 47.9 µM in assay [9] and 40.3 µM in assay [11].
`O=c1oc2cc(O)ccc2cc1-c1nc2ccccc2s1`: the TGI is 58.2 µM in assay [1]; 52.7 µM in assay [2]; 62.2 µM in assay [3]; 55.7 µM in assay [4]; more than 100 µM in assay [5]; 47 µM in [6]. In addition, the TGI is 44 µM in [7], more than 100 µM in [8], 74.6 µM in assay [9] and 52.5 µM in assay [10].
Take `COc1cc2c(oc(=O)c3cc4ccoc4c(OC)c32)c2cccc(O)c12`: the TGI in assay [1], in assay [2], in [3], in [4], in assay [6] and in assay [7] was more than 100 µM throughout. Moreover, the TGI in assay [8], in assay [12], in assay [9] and in assay [11] was more than 100 µM throughout.
Consider `O=C(Nc1ccccc1)Nn1c(-c2cccs2)nc2ccc(I)cc2c1=O`, for which the TGI was 65.9 µM in assay [1]; more than 100 µM in assay [2]; more than 100 µM in assay [3]; 64.8 µM in assay [4]; 52.3 µM in [5]; more than 100 µM in [6]. Also, the TGI in assay [7] was more than 100 µM; in assay [8], 47.9 µM; in assay [9], 53.3 µM; in [10] it was more than 100 µM; in assay [11], more than 100 µM.
Turning to `COc1ccc(/C=C(\C(=O)OCC(C)C)c2ccc(OC)c(OC)c2)cc1OC`, the TGI in assay [1], in [2], in [3], in assay [4], in assay [5] and in assay [6] was more than 100 µM in each case. Also, the TGI in assay [7], in assay [8], in assay [9], in assay [10] and in assay [11] was more than 100 µM in each case.
With `NC(CCCNc1cccc(O)c1)C(=O)O` (stereo not given), the TGI in [1], in [2], in [3], in assay [4], in assay [6] and in assay [7] was more than 100 µM throughout. The TGI in assay [8], in assay [12], in [9] and in assay [11] was more than 100 µM in each case.
In the case of `CCN(CC)c1nc(N(C)C)c2ccc(OC)cc2n1`, the TGI in assay [1] turned out to be 28.1 µM; in assay [2], 89.3 µM; in [3], 26.5 µM; in [4], 71.8 µM; in assay [6] it was 20.1 µM; in assay [7] it was 50 µM. Further, the TGI in assay [8] was 31.4 µM; in assay [12], 55.1 µM; in assay [9] it was more than 100 µM; in [10], 54.8 µM; in [11] it was 55.2 µM.
